In patent US20100298141A1, “SUBSTITUTED PYRIDINE N-OXIDE HERBICIDES” (E. I. DU PONT DE NEMOURS AND COMPANY, priority 2007, published 2010):

What was measured:
redroot pigweed = assay: Test A pre-/postemergence greenhouse test; format: in vivo, Amaranthus retroflexus; settings: for Pigweed plant response rating: 0 to 100 scale
How it was run: (§1)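 Planting was into mixed loam soil and sand; preemergence treatment followed as a directed soil spray. Concurrently, emerged plants (one- to two-leaf, 2–10 cm) received postemergence applications of identically formulated compound (non-phytotoxic solvent, surfactant). After approximately ten days under greenhouse conditions, injury was judged by eye against untreated plants.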

eastern black nightshade = assay: Test C pre-/postemergence test; format: in vivo, Solanum ptycanthum
How it was run: (§2)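 Compounds in a non-phytotoxic solvent with surfactant applied preemergence to seeded pots and, at the same time, postemergence to plants 2–18 cm tall (1- to 4-leaf stage). Paddy tests: pots flooded to 3 cm, compound applied into the water, depth held throughout.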

corn = assay: Test A pre-/postemergence greenhouse test; format: in vivo, Zea mays; settings: for Corn plant response rating: 0 to 100 scale
How it was run: as §1

bermudagrass = assay: Test C pre-/postemergence test; format: in vivo, Cynodon dactylon; settings: for Plant response rating, Bermudagrass: scale 0 to 100, 0 no effect, 100 complete control
How it was run: as §2

barnyardgrass = assay: Test C flooded paddy test; format: in vivo, Echinochloa crus-galli; settings: Flood
How it was run: (§3)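 Test compounds are applied straight into paddy water held 3 cm above the soil surface, with that flood maintained for the whole test. After 13 to 15 days in the greenhouse, each species is scored visually relative to controls.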

velvetleaf = assay: Test C pre-/postemergence test; format: in vivo, Abutilon theophrasti; settings: Postemergence; for Plant response rating, Velvetleaf: scale 0 to 100, 0 no effect, 100 complete control
How it was run: as §2

[1] = system: common (oilseed) sunflower; assay: Test C pre-/postemergence test; format: in vivo, Helianthus annuus; settings: for Sunflower plant response rating: preemergence, scale 0 (no effect) to 100 (complete control)
How it was run: as §2

Surinam grass = assay: Test C pre-/postemergence test; format: in vivo, Brachiaria decumbens; settings: for Surinam Grass plant response rating: preemergence, scale 0 (no effect) to 100 (complete control); for Plant response rating, Surinam Grass: scale 0 to 100, 0 no effect, 100 complete control
How it was run: as §2

wild oat = assay: Test C pre-/postemergence test; format: in vivo, Avena fatua; settings: for Plant response rating, Oat, Wild: scale 0 to 100, 0 no effect, 100 complete control
How it was run: as §2

wheat = assay: Test C pre-/postemergence test; format: in vivo, Triticum aestivum; settings: for Wheat plant response rating: preemergence, scale 0 (no effect) to 100 (complete control); for Plant response rating, Wheat: scale 0 to 100, 0 no effect, 100 complete control
How it was run: as §2

blackgrass = assay: Test C pre-/postemergence test; format: in vivo, Alopecurus myosuroides; settings: for Plant response rating, Blackgrass: scale 0 to 100, 0 no effect, 100 complete control
How it was run: as §2

crabgrass = assay: Test C pre-/postemergence test; format: in vivo, Digitaria sanguinalis; settings: for Plant response rating, Crabgrass, Large: scale 0 to 100, 0 no effect, 100 complete control
How it was run: as §2

rice = assay: Test C flooded paddy test; format: in vivo, Oryza sativa; settings: Flood
How it was run: as §3

pigweed = assay: Test C pre-/postemergence test; format: in vivo, Amaranthus retroflexus; settings: for Plant response rating, Pigweed: scale 0 to 100, 0 no effect, 100 complete control
How it was run: as §2

catchweed bedstraw = assay: Test C pre-/postemergence test; format: in vivo, Galium aparine
How it was run: as §2

kochia = assay: Test C pre-/postemergence test; format: in vivo, Kochia scoparia; settings: for Plant response rating, Kochia: scale 0 to 100, 0 no effect, 100 complete control
How it was run: as §2

[2] = Postemergence, 125 g ai/ha, 0 is no effect, 100 is complete control
[3] = Postemergence, 500 g ai/ha, 0 is no effect, 100 is complete control
[4] = Preemergence, 125 g ai/ha, 0 no effect, 100 complete control
[5] = Preemergence, 500 g ai/ha, 0 to 100 scale where 0 is no effect and 100 is complete control
[6] = 31 g ai/ha, Preemergence, scale 0 to 100
[7] = 62 g ai/ha, preemergence, scale 0 (no effect) to 100 (complete control)
[8] = preemergence, 125 g ai/ha, scale 0 (no effect) to 100 (complete control)
[9] = 31 g ai/ha, scale 0 to 100 (0 no effect, 100 complete control)
[10] = 62 g ai/ha, scale 0 to 100, 0 no effect, 100 complete control, 13 to 15 days
[11] = 125 g ai/ha, scale 0 to 100, 0 no effect, 100 complete control, 13 to 15 days
[12] = 250 g ai/ha, scale 0 to 100 (0 no effect, 100 complete control)

Cn1nc(C(F)(F)F)c(C[S+]([O-])c2cccc[n+]2[O-])c1OC(F)F (centres unmarked) [Compound 3]
Pigweed plant response rating (redroot pigweed; [2]): 80
Pigweed plant response rating (redroot pigweed; [3]): 90
Pigweed plant response rating (redroot pigweed; [4]): 100
Plant response rating, Pigweed (redroot pigweed; [5]): 100
Nightshade plant response rating (eastern black nightshade; [6]): 85
Nightshade plant response rating (eastern black nightshade; [7]): 98
Plant response rating (0 to 100), Nightshade (eastern black nightshade; Preemergence, 250 g ai/ha): 100
Nightshade plant response rating (eastern black nightshade; [8]): 98
Corn plant response rating (corn; [2]): 60
Corn plant response rating (corn; [3]): 80
Corn plant response rating (corn; [4]): 30
Plant response rating, Corn (corn; [5]): 90
Bermudagrass plant response rating (bermudagrass; [6]): 80
Bermudagrass plant response rating (bermudagrass; [7]): 100
Plant response rating (0 to 100), Bermudagrass (bermudagrass; Postemergence, 31 g ai/ha): 0
Plant response rating, Bermudagrass (bermudagrass; Postemergence, 125 g ai/ha): 50
Plant response rating, Bermudagrass (bermudagrass; Postemergence, 250 g ai/ha): 50
Plant response rating (0 to 100), Bermudagrass (bermudagrass; Preemergence, 250 g ai/ha): 100
Bermudagrass plant response rating (bermudagrass; [8]): 100
Plant response rating, Barnyardgrass (barnyardgrass; [9]): 0
Plant response rating, Barnyardgrass (barnyardgrass; [10]): 50
Plant response rating, Barnyardgrass (barnyardgrass; [11]): 75
Plant response rating, Barnyardgrass (barnyardgrass; [12]): 85
Plant response rating (0 to 100), Velvetleaf (velvetleaf; 31 g ai/ha): 10
Plant response rating (0 to 100), Velvetleaf (velvetleaf; 62 g ai/ha): 10
Plant response rating, Velvetleaf (velvetleaf; 125 g ai/ha): 60
Plant response rating, Velvetleaf (velvetleaf; 250 g ai/ha): 65
Sunflower plant response rating ([1]; 62 g ai/ha): 15
Plant response rating (0 to 100), Sunflower ([1]; Preemergence, 250 g ai/ha): 95
Sunflower plant response rating ([1]; 125 g ai/ha): 70
Surinam Grass plant response rating (Surinam grass; 62 g ai/ha): 100
Plant response rating (0 to 100), Surinam Grass (Surinam grass; Postemergence, 31 g ai/ha): 0
Plant response rating (0 to 100), Surinam Grass (Surinam grass; Postemergence, 62 g ai/ha): 0
Plant response rating, Surinam Grass (Surinam grass; Postemergence, 125 g ai/ha): 50
Plant response rating, Surinam Grass (Surinam grass; Postemergence, 250 g ai/ha): 55
Plant response rating (0 to 100), Surinam Grass (Surinam grass; Preemergence, 250 g ai/ha): 100
Surinam Grass plant response rating (Surinam grass; 125 g ai/ha): 100
Oat, Wild plant response rating (wild oat; [6]): 30
Oat, Wild plant response rating (wild oat; [7]): 40
Plant response rating (0 to 100), Oat, Wild (wild oat; Postemergence, 31 g ai/ha): 0
Plant response rating, Oat, Wild (wild oat; Postemergence, 62 g ai/ha): 0
Plant response rating, Oat, Wild (wild oat; Postemergence, 125 g ai/ha): 0
Plant response rating, Oat, Wild (wild oat; Postemergence, 250 g ai/ha): 0
Plant response rating (0 to 100), Oat, Wild (wild oat; Preemergence, 250 g ai/ha): 100
Oat, Wild plant response rating (wild oat; [8]): 80
Wheat plant response rating (wheat; 62 g ai/ha): 20
Plant response rating (0 to 100), Wheat (wheat; Postemergence, 31 g ai/ha): 0
Plant response rating (0 to 100), Wheat (wheat; Postemergence, 62 g ai/ha): 0
Plant response rating, Wheat (wheat; Postemergence, 125 g ai/ha): 0
Plant response rating, Wheat (wheat; Postemergence, 250 g ai/ha): 0
Plant response rating (0 to 100), Wheat (wheat; Preemergence, 250 g ai/ha): 80
Wheat plant response rating (wheat; 125 g ai/ha): 70
Blackgrass plant response rating (blackgrass; [6]): 70
Blackgrass plant response rating (blackgrass; [7]): 70
Plant response rating (0 to 100), Blackgrass (blackgrass; Postemergence, 31 g ai/ha): 0
Plant response rating, Blackgrass (blackgrass; Postemergence, 62 g ai/ha): 0
Plant response rating, Blackgrass (blackgrass; Postemergence, 125 g ai/ha): 0
Plant response rating, Blackgrass (blackgrass; Postemergence, 250 g ai/ha): 20
Plant response rating (0 to 100), Blackgrass (blackgrass; Preemergence, 250 g ai/ha): 100
Blackgrass plant response rating (blackgrass; [8]): 100
Crabgrass, Large plant response rating (crabgrass; [6]): 45
Crabgrass, Large plant response rating (crabgrass; [7]): 98
Plant response rating (0 to 100), Crabgrass, Large (crabgrass; Postemergence, 31 g ai/ha): 0
Plant response rating, Crabgrass, Large (crabgrass; Postemergence, 62 g ai/ha): 0
Plant response rating, Crabgrass, Large (crabgrass; Postemergence, 125 g ai/ha): 50
Plant response rating, Crabgrass, Large (crabgrass; Postemergence, 250 g ai/ha): 70
Plant response rating (0 to 100), Crabgrass, Large (crabgrass; Preemergence, 250 g ai/ha): 100
Crabgrass, Large plant response rating (crabgrass; [8]): 100
Plant response rating, Rice (rice; [9]): 0
Plant response rating, Rice (rice; [10]): 0
Plant response rating, Rice (rice; [11]): 60
Plant response rating, Rice (rice; [12]): 70
Pigweed plant response rating (pigweed; [6]): 75
Pigweed plant response rating (pigweed; [7]): 100
Plant response rating (0 to 100), Pigweed (pigweed; Postemergence, 31 g ai/ha): 0
Plant response rating (0 to 100), Pigweed (pigweed; Postemergence, 62 g ai/ha): 0
Plant response rating, Pigweed (pigweed; Postemergence, 125 g ai/ha): 10
Plant response rating, Pigweed (pigweed; Postemergence, 250 g ai/ha): 60
Plant response rating (0 to 100), Pigweed (pigweed; Preemergence, 250 g ai/ha): 100
Pigweed plant response rating (pigweed; [8]): 100
Galium plant response rating (catchweed bedstraw; [6]): 0
Galium plant response rating (catchweed bedstraw; [7]): 0
Plant response rating (0 to 100), Galium (catchweed bedstraw; Preemergence, 250 g ai/ha): 100
Galium plant response rating (catchweed bedstraw; [8]): 95
Kochia plant response rating (kochia; [6]): 80
Kochia plant response rating (kochia; [7]): 100
Plant response rating (0 to 100), Kochia (kochia; Postemergence, 31 g ai/ha): 5
Plant response rating, Kochia (kochia; Postemergence, 62 g ai/ha): 5
Plant response rating, Kochia (kochia; Postemergence, 125 g ai/ha): 10
Plant response rating, Kochia (kochia; Postemergence, 250 g ai/ha): 10
Plant response rating (0 to 100), Kochia (kochia; Preemergence, 250 g ai/ha): 100
Kochia plant response rating (kochia; [8]): 100
